Assay results as given in patent EP4745135A1 (Gluetacs Therapeutics (Shanghai) Co., Ltd., priority 2023, dated 2025).

Key:
CK1α = molecular target: T1, CK1α (Homo sapiens, UniProt P48729+Q96SW2); assay: Western blot, degradation of substrate protein in hPBMCs; assay type: cell-based
T1 construct: effects of the compounds of the present disclosure on the expression of target proteins in cells; endogenous in cells; host or cells: human PBMCs (Milecell Biotechnologies)

WEE1 = molecular target: T2, WEE1 (Homo sapiens, UniProt P30291+Q96SW2); assay: as above; assay type: cell-based
T2 construct: effects of the compounds of the present disclosure on the expression of target proteins in cells; endogenous in cells; host or cells: human PBMCs (Milecell Biotechnologies)

IKZF3 = molecular target: T3, IKZF3 (Homo sapiens, UniProt Q96SW2+Q9UKT9); assay: as above; assay type: cell-based
T3 construct: effects of the compounds of the present disclosure on the expression of target proteins in cells; endogenous in cells; host or cells: human PBMCs (Milecell Biotechnologies)

IKZF1 = molecular target: T4, IKZF1 (Homo sapiens, UniProt Q13422+Q96SW2); assay: as above; assay type: cell-based
T4 construct: effects of the compounds of the present disclosure on the expression of target proteins in cells; endogenous in cells; host or cells: human PBMCs (Milecell Biotechnologies)

IKZF2 = molecular target: T5, IKZF2 (Homo sapiens, UniProt Q96SW2+Q9UKS7); assay: as above; assay type: cell-based
T5 construct: effects of the compounds of the present disclosure on the expression of target proteins in cells; endogenous in cells; host or cells: human PBMCs (Milecell Biotechnologies)

GSPT1 = assay: as above; assay type: cell-based, Human
[1] = system: Human breast cancer cell (MCF-7); assay: Tumor cell proliferation inhibition (CellTiter-Meiluncell luminescent cell viability assay); details: MCF7, 96 h; for inhibition at 0.01 µM: read-out: Inhibition Rate at 10 nM (%); for inhibition at 0.5 µM: read-out: Inhibition Rate at 500 nM (%)
Method: (§1) The tumor cells used herein were cultured in a cell culture medium listed in table 2 at 37°C in an incubator with 5% CO2. Prior to experimentation, all cell lines used were correctly identified by STR profiling, and tested negative for mycoplasma contamination using a mycoplasma detection kit through routine screenings.
(§2) The IC50 values of the compounds of the present disclosure (including the compounds in Table 1 and Examples) were determined using the CellTiter-Meiluncell Luminescent Cell Viability Assay Kit from Dalian Meilun Biotech Co., Ltd. The detailed procedure is as follows: Tumor cells were seeded in 96-well cell culture plates at the densities specified in Table 3. On the following day, the test compounds of the present disclosure were subjected to serial dilution. The dilution can be performed according to one of the following two methods: • (1) The first dilution method: The test compounds of the present disclosure (including the compounds in Table 1 and Examples) were subjected to 5-fold serial dilutions starting from a highest concentration of 2000 µM, resulting in a total of 9 concentrations from high to low (2000, 400, 80, 16, 3.2, 0.64, 0.128, 0.0256, 0.00512 µM). Subsequently, 0.5 µL of the test compound dilution was transferred into the 96-well plate containing the cells, with each well containing 100 µL of cell culture medium. […] Into the 96-well plate, the diluted test compounds and corresponding detection reagents were added, resulting in final test compound concentrations of 500 nM and 10 nM, respectively. The experimental procedure is described below using the diluted 2 µM test compound as an example.
(§3) 0.5 µL of the aforementioned diluted compound of the present disclosure (including the compounds in Table 1 and Examples) was added to the seeded cells in 100 µL of medium, yielding a final test compound concentration of 10 nM. After the cells were treated with the compounds of the present disclosure for a specified period, the cell viability assay reagent was added to the culture medium according to the kit's instructions to determine cell viability. […] All controls were treated using the same procedure as the compounds of the present disclosure. The growth inhibition curves for the compounds of the present disclosure were plotted using Prism GraphPad software, and the IC50 values were calculated therefrom.

[2] = molecular target: T6, human Cereblon WT GST-tagged protein (Homo sapiens, UniProt Q96SW2); assay: CRBN-binding affinity, HTRF (CEREBLON BINDING kit); details: for inhibition at 0.5 µM: read-out: Inhibition Rate at 0.5 µM (%); for inhibition at 2 µM: read-out: Inhibition Rate at 2 µM (%)
T6 construct: purchased CISBIO 64BDCRBNPEH

[3] = system: Human acute T lymphocytic leukemia cell (Molt4); assay: Tumor cell proliferation inhibition (CellTiter-Meiluncell luminescent cell viability assay); details: MOLT-4, 96 h; for inhibition at 0.01 µM: read-out: Inhibition Rate at 10 nM (%); for inhibition at 0.5 µM: read-out: Inhibition Rate at 500 nM (%)
[4] = system: Human multiple myeloma cell (MM.1S); assay: as above; details: for inhibition at 0.01 µM / inhibition at 0.5 µM: Homo sapiens, MM1.S, 96 h; for inhibition at 0.01 µM: read-out: Inhibition Rate at 10 nM (%); for inhibition at 0.5 µM: read-out: Inhibition Rate at 500 nM (%); for Inhibition Rate at 500 nM (%): MM.1S, 96 hours
[5] = system: Human myeloid monocytic leukemia cell (MV-4-11); assay: as above; details: MV4-11, 96 h; for inhibition at 0.01 µM: read-out: Inhibition Rate at 10 nM (%); for inhibition at 0.5 µM: read-out: Inhibition Rate at 500 nM (%)
Method: as §1, §2, §3

[6] = 24 hours treatment, compounds at 50 nM and 500 nM (concentration behind the class not stated)
[7] = Western blot, 24 hours of compound treatment, compounds tested at 50 nM and 500 nM (concentration for the table not stated)

T5 sequence (Q9UKS7 whole entry): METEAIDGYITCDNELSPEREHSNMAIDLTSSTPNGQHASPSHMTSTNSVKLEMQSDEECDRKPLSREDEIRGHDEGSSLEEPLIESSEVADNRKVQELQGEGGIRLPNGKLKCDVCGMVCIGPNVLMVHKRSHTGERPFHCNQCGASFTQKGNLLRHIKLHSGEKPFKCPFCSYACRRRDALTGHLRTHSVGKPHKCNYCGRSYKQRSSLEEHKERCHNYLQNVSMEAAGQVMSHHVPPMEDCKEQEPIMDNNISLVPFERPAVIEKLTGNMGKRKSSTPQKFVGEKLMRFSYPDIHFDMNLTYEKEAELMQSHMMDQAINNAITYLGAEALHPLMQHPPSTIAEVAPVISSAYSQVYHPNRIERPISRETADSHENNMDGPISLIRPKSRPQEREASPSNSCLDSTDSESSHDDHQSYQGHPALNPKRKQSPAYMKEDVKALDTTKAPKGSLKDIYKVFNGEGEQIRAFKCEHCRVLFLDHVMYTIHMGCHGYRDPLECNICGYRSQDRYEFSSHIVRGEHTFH
T5 sequence (Q96SW2 whole entry): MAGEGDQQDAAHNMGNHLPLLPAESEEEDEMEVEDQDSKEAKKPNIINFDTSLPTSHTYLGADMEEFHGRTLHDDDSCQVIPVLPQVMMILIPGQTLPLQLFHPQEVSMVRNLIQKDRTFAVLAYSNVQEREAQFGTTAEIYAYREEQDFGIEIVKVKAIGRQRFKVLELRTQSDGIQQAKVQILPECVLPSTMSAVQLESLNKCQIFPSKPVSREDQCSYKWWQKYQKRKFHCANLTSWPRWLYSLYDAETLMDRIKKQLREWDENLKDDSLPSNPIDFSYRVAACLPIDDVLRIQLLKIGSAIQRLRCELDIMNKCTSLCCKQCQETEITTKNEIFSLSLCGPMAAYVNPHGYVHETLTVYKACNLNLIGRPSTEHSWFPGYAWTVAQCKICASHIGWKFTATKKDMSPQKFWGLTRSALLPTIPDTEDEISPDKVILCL
T5 sequence (Q16531 whole entry partner): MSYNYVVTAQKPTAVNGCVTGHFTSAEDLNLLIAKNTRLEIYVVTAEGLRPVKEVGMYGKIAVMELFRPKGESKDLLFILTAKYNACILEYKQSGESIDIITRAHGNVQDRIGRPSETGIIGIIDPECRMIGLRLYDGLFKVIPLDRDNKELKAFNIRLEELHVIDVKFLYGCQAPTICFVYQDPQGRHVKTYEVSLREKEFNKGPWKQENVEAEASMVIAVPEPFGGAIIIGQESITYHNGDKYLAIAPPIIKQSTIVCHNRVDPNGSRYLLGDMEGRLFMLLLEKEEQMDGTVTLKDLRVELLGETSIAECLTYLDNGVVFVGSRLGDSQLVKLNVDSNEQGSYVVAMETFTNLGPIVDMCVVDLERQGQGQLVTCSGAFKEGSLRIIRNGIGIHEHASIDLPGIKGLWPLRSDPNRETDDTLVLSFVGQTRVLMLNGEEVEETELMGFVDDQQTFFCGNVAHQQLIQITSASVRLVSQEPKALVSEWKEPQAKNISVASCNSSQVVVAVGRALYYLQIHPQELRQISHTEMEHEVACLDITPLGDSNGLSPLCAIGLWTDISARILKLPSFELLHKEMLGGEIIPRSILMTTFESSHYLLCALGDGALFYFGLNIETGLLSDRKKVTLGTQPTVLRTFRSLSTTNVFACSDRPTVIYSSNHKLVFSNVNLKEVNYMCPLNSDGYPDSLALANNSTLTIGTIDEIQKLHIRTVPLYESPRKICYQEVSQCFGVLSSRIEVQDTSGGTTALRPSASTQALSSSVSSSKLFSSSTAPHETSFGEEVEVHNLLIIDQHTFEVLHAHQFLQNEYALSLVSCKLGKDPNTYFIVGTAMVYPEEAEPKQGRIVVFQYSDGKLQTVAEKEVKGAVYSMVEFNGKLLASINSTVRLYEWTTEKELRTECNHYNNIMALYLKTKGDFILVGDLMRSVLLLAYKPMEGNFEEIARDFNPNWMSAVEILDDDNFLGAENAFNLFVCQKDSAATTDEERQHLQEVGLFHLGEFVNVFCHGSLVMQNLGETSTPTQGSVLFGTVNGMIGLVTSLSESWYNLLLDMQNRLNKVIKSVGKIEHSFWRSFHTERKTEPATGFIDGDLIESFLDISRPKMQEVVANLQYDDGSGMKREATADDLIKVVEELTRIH
T4 sequence (Q13422 whole entry): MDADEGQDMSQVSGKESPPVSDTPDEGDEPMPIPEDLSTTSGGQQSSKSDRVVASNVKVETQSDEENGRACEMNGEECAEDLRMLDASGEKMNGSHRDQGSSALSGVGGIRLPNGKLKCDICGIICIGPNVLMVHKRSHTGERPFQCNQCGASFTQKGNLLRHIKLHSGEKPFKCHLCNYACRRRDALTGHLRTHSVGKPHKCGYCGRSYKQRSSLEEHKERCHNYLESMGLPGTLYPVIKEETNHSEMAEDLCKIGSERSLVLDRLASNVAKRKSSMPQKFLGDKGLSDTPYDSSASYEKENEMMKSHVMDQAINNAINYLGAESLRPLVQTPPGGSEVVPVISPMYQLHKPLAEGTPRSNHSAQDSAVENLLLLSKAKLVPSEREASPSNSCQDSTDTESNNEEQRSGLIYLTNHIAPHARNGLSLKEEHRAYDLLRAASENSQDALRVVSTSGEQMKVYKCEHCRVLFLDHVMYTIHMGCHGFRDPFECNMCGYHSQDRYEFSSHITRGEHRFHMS
T4 sequence (Q96SW2 whole entry): as the sequence (Q96SW2 whole entry) above
T4 sequence (Q16531 whole entry partner): as the sequence (Q16531 whole entry partner) above
T3 sequence (Q9UKT9 whole entry): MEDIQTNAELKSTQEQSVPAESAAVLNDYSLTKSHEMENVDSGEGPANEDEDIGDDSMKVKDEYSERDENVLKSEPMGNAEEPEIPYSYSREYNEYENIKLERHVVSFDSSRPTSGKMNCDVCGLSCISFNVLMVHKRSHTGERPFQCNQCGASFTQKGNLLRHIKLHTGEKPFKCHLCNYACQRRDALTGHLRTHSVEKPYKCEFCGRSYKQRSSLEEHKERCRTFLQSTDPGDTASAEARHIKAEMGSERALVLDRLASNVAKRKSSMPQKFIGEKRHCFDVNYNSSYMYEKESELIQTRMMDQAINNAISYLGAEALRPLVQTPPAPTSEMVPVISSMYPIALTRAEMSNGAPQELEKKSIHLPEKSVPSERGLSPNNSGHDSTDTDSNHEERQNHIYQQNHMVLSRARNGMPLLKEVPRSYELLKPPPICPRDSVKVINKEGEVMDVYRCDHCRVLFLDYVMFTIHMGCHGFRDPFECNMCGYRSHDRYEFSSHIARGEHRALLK
T3 sequence (Q96SW2 whole entry): as the sequence (Q96SW2 whole entry) above
T3 sequence (Q16531 whole entry partner): as the sequence (Q16531 whole entry partner) above
T6 sequence (Q96SW2 whole entry): as the sequence (Q96SW2 whole entry) above
T2 sequence (P30291 whole entry): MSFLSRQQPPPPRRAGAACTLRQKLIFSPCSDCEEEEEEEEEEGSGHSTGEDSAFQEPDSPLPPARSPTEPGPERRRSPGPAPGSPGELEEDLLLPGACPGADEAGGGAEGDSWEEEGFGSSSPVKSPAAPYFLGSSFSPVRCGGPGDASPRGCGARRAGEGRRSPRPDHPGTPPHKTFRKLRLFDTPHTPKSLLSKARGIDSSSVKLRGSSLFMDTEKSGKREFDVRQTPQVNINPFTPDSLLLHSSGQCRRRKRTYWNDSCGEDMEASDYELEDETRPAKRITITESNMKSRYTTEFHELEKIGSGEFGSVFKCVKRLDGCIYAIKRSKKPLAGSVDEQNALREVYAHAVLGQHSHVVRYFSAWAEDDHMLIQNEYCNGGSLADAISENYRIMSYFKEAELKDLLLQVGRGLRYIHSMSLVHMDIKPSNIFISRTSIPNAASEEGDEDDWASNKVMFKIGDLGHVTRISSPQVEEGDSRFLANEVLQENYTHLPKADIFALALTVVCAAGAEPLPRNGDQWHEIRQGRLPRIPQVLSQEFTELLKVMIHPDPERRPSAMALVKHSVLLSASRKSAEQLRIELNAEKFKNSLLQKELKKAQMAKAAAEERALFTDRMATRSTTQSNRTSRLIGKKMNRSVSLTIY
T2 sequence (Q96SW2 whole entry): as the sequence (Q96SW2 whole entry) above
T2 sequence (Q16531 whole entry partner): as the sequence (Q16531 whole entry partner) above
T1 sequence (P48729 whole entry): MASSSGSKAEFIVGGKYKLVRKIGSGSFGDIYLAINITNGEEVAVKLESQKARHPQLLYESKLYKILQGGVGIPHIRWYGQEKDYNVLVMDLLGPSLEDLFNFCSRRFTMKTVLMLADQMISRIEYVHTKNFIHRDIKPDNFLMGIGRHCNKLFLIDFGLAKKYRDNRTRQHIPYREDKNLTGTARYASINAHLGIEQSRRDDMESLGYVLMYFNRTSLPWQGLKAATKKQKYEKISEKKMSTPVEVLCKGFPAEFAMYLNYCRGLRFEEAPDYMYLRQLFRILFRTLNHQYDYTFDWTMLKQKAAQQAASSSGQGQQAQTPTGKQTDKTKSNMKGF
T1 sequence (Q96SW2 whole entry): as the sequence (Q96SW2 whole entry) above
T1 sequence (Q16531 whole entry partner): as the sequence (Q16531 whole entry partner) above

## O=C1CCC(N2Cc3c(CN4CC(n5cnc6cc(F)ccc65)C4)cccc3C2=S)C(=O)N1 (stereo not shown) [GT-08861, 3-(4-((3-(5-fluoro-1H-benzo[d]imidazol-1-yl)azetidin-1-yl)methyl)-1-thioxoisoindolin-2-yl)piperidine-2,6-dione]
CK1α; [6]
  CK1α substrate protein remaining %: B (80%< substrate protein remaining %≤ 100%)
WEE1; [6]
  Wee1 substrate protein remaining %: A (0% ≤ substrate protein remaining % ≤ 80%)
IKZF3; [6]
  IKZF3 substrate protein remaining %: B (80%< substrate protein remaining %≤ 100%)
IKZF1; [6]
  IKZF 1 substrate protein remaining %: B (80%< substrate protein remaining %≤ 100%)
IKZF2; [6]
  IKZF2 substrate protein remaining %: B (80%< substrate protein remaining %≤ 100%)
GSPT1; [6]
  GSPT1 substrate protein remaining %: B (80%< substrate protein remaining %≤ 100%)
[1]
  inhibition at 0.01 µM: 30 to 40%
  inhibition at 0.5 µM: 40 to 50%
[2]
  inhibition at 0.5 µM: 40 to 53%
  inhibition at 2 µM: 80 to 100%

## O=C1CCC(N2Cc3cc(CN4CCN(c5nc(N6CCOCC6)nc6c5SCC6)CC4)ccc3C2=S)C(=O)N1 (stereo not shown) [GT-09329, 3-(5-((4-(2-morpholino-6,7-dihydrothieno[3,2-d]pyrimidin-4-yl)piperazin-1-yl)methyl)-1-thioxoisoindolin-2-yl)piperidine-2,6-dione]
CK1α; [6]
  CK1α substrate protein remaining %: B (80%< substrate protein remaining %≤ 100%)
WEE1; [6]
  Wee1 substrate protein remaining %: B (80%< substrate protein remaining %≤ 100%)
IKZF3; [6]
  IKZF3 substrate protein remaining %: B (80%< substrate protein remaining %≤ 100%)
IKZF1; [6]
  IKZF 1 substrate protein remaining %: B (80%< substrate protein remaining %≤ 100%)
IKZF2; [6]
  IKZF2 substrate protein remaining %: A (0% ≤ substrate protein remaining % ≤ 80%)
GSPT1; [6]
  GSPT1 substrate protein remaining %: A (0% ≤ substrate protein remaining % ≤ 80%)
[1]
  inhibition at 0.01 µM: 20 to 30%
  inhibition at 0.5 µM: 40 to 50%
[2]
  inhibition at 0.5 µM: 60 to 80%
  inhibition at 2 µM: 80 to 100%

## Cc1nc(N2CCN(Cc3cccc4c3CN(C3CCC(=O)NC3=O)C4=S)CC2)c2c3c(sc2n1)CCCC3 (stereo not shown) [GT-08923, 3-(4-((4-(2-methyl-5,6,7,8-tetrahydrobenzo[4,5]thieno[2,3-d]pyrimidin-4-yl)piperazin-1-yl)methyl)-1-thioxoisoindolin-2-yl)piperidine-2,6-dione]
CK1α; [6]
  CK1α substrate protein remaining %: B (80%< substrate protein remaining %≤ 100%)
WEE1; [6]
  Wee1 substrate protein remaining %: A (0% ≤ substrate protein remaining % ≤ 80%)
IKZF3; [6]
  IKZF3 substrate protein remaining %: B (80%< substrate protein remaining %≤ 100%)
IKZF1; [6]
  IKZF 1 substrate protein remaining %: B (80%< substrate protein remaining %≤ 100%)
IKZF2; [6]
  IKZF2 substrate protein remaining %: B (80%< substrate protein remaining %≤ 100%)
GSPT1; [6]
  GSPT1 substrate protein remaining %: B (80%< substrate protein remaining %≤ 100%)
[1]
  inhibition at 0.01 µM: 70 to 80%
  inhibition at 0.5 µM: 70 to 80%
[2]
  inhibition at 0.5 µM: 30 to 40%
  inhibition at 2 µM: 80 to 100%

## O=C1CCC(N2Cc3c(CN4CCC(c5ncnc6sccc56)CC4)cccc3C2=S)C(=O)N1 (stereo not shown) [GT-08928, 3-(4-((4-(thieno[2,3-d]pyrimidin-4-yl)piperidin-1-yl)methyl)-1-thioxoisoindolin-2-yl)piperidine-2,6-dione]
CK1α; [6]
  CK1α substrate protein remaining %: B (80%< substrate protein remaining %≤ 100%)
WEE1; [6]
  Wee1 substrate protein remaining %: A (0% ≤ substrate protein remaining % ≤ 80%)
IKZF3; [6]
  IKZF3 substrate protein remaining %: B (80%< substrate protein remaining %≤ 100%)
IKZF1; [6]
  IKZF 1 substrate protein remaining %: B (80%< substrate protein remaining %≤ 100%)
IKZF2; [6]
  IKZF2 substrate protein remaining %: B (80%< substrate protein remaining %≤ 100%)
GSPT1; [6]
  GSPT1 substrate protein remaining %: B (80%< substrate protein remaining %≤ 100%)
[1]
  inhibition at 0.01 µM: 40 to 50%
  inhibition at 0.5 µM: 60 to 70%
[2]
  inhibition at 0.5 µM: 60 to 80%
  inhibition at 2 µM: 80 to 100%

## O=C1CCC(N2Cc3cc(CN4CCC(c5ccccc5)CC4)ccc3C2=S)C(=O)N1 (stereo not shown) [GT-08616, 3-(5-((4-phenylpiperidin-1-yl)methyl)-1-thioxoisoindolin-2-yl)piperidine-2,6-dione]
[3]
  inhibition at 0.01 µM: 10 to 20%
  inhibition at 0.5 µM: 40 to 50%
[4]
  inhibition at 0.01 µM: 20 to 30%
  inhibition at 0.5 µM: 50 to 60%
[5]
  inhibition at 0.01 µM: -5 to 0%
  inhibition at 0.5 µM: 60 to 80%
CK1α; [7]
  CK1α substrate protein remaining %: B (80%< substrate protein remaining %≤ 100%)
WEE1; [7]
  Wee1 substrate protein remaining %: B (80%< substrate protein remaining %≤ 100%)
IKZF3; [7]
  IKZF3 substrate protein remaining %: B (80%< substrate protein remaining %≤ 100%)
IKZF1; [7]
  IKZF 1 substrate protein remaining %: B (80%< substrate protein remaining %≤ 100%)
IKZF2; [7]
  IKZF2 substrate protein remaining %: B (80%< substrate protein remaining %≤ 100%)
GSPT1; [7]
  GSPT1 substrate protein remaining %: A (0% ≤ substrate protein remaining % ≤ 80%)
[2]
  inhibition at 0.5 µM: 53 to 60%
  inhibition at 2 µM: 80 to 100%

## O=C1CCC(N2Cc3cc(CN4CCC(c5c[nH]c6ncccc56)CC4)ccc3C2=S)C(=O)N1 (stereo not shown) [GT-09268, 3-(5-((4-(1H-pyrrolo[2,3-b]pyridin-3-yl)piperidin-1-yl)methyl)-1-thioxoisoindolin-2-yl)piperidine-2,6-dione]
[3]
  inhibition at 0.01 µM: 40 to 50%
  inhibition at 0.5 µM: 40 to 50%
[4]
  inhibition at 0.01 µM: 30 to 40%
  Inhibition Rate at 500 nM (%): la7
[5]
  inhibition at 0.01 µM: 5 to 10%
  inhibition at 0.5 µM: 60 to 80%
CK1α; [6]
  CK1α substrate protein remaining %: B (80%< substrate protein remaining %≤ 100%)
WEE1; [6]
  Wee1 substrate protein remaining %: B (80%< substrate protein remaining %≤ 100%)
IKZF3; [6]
  IKZF3 substrate protein remaining %: B (80%< substrate protein remaining %≤ 100%)
IKZF1; [6]
  IKZF 1 substrate protein remaining %: B (80%< substrate protein remaining %≤ 100%)
IKZF2; [6]
  IKZF2 substrate protein remaining %: B (80%< substrate protein remaining %≤ 100%)
GSPT1; [6]
  GSPT1 substrate protein remaining %: A (0% ≤ substrate protein remaining % ≤ 80%)
[2]
  inhibition at 0.5 µM: 53 to 60%
  inhibition at 2 µM: 80 to 100%

## O=C1CCC(N2Cc3cc(CN4CCN(c5nccc(Cl)c5Br)CC4)ccc3C2=S)C(=O)N1 (stereo not shown) [GT-09245, 3-(5-((4-(3-bromo-4-chloropyridin-2-yl)piperazin-1-yl)methyl)-1-thioxoisoindolin-2-yl)piperidine-2,6-dione]
[3]
  inhibition at 0.01 µM: 10 to 20%
  inhibition at 0.5 µM: 50 to 60%
[4]
  inhibition at 0.01 µM: 40 to 50%
  inhibition at 0.5 µM: 70 to 80%
[5]
  inhibition at 0.01 µM: 60 to 80%
  inhibition at 0.5 µM: 80 to 100%
CK1α; [6]
  CK1α substrate protein remaining %: B (80%< substrate protein remaining %≤ 100%)
WEE1; [6]
  Wee1 substrate protein remaining %: B (80%< substrate protein remaining %≤ 100%)
IKZF3; [6]
  IKZF3 substrate protein remaining %: B (80%< substrate protein remaining %≤ 100%)
IKZF1; [6]
  IKZF 1 substrate protein remaining %: A (0% ≤ substrate protein remaining % ≤ 80%)
IKZF2; [6]
  IKZF2 substrate protein remaining %: A (0% ≤ substrate protein remaining % ≤ 80%)
GSPT1; [6]
  GSPT1 substrate protein remaining %: A (0% ≤ substrate protein remaining % ≤ 80%)
[2]
  inhibition at 0.5 µM: 60 to 80%
  inhibition at 2 µM: 80 to 100%

## O=C1CCC(N2Cc3cc(CN4CCC(c5nccc(Cl)c5Cl)CC4)ccc3C2=S)C(=O)N1 (stereo not shown) [GT-08488, 3-(5-((4-(3,4-dichloropyridin-2-yl)piperidin-1-yl)methyl)-1-thioxoisoindolin-2-yl)piperidine-2,6-dione]
[3]
  inhibition at 0.01 µM: 10 to 20%
  inhibition at 0.5 µM: 70 to 80%
[4]
  inhibition at 0.01 µM: 10 to 20%
  Inhibition Rate at 500 nM (%): la8
[5]
  inhibition at 0.01 µM: 18 to 25%
  inhibition at 0.5 µM: 80 to 100%
CK1α; [7]
  CK1α substrate protein remaining %: B (80%< substrate protein remaining %≤ 100%)
WEE1; [7]
  Wee1 substrate protein remaining %: B (80%< substrate protein remaining %≤ 100%)
IKZF3; [7]
  IKZF3 substrate protein remaining %: B (80%< substrate protein remaining %≤ 100%)
IKZF1; [7]
  IKZF 1 substrate protein remaining %: B (80%< substrate protein remaining %≤ 100%)
IKZF2; [7]
  IKZF2 substrate protein remaining %: B (80%< substrate protein remaining %≤ 100%)
GSPT1; [7]
  GSPT1 substrate protein remaining %: A (0% ≤ substrate protein remaining % ≤ 80%)
[2]
  inhibition at 0.5 µM: 60 to 80%
  inhibition at 2 µM: 80 to 100%

## Cc1nc(C2CCN(Cc3cccc4c3CN(C3CCC(=O)NC3=O)C4=S)CC2)c2c(-c3ccccc3)csc2n1 (stereo not shown) [GT-08931, 3-(4-((4-(2-methyl-5-phenylthieno[2,3-d]pyrimidin-4-yl)piperidin-1-yl)methyl)-1-thioxoisoindolin-2-yl)piperidine-2,6-dione]
[1]
  inhibition at 0.01 µM: 30 to 40%
  inhibition at 0.5 µM: 60 to 70%
[2]
  inhibition at 0.5 µM: 40 to 53%
  inhibition at 2 µM: 80 to 100%
